Assay results published in patent US7989458B2, “Pyrimidine derivatives as alk-5 inhibitors” (Novartis AG, priority 2006, dated 2011).

T1: human ALK5 (ALK5 T204D kinase domain) (Homo sapiens, UniProt P36897, T204D)
T1 construct: The kinase domain of human ALK5 (amino acids 200-503); made in house; host or cells: insect cells (baculovirus)
T1 sequence (P36897 200-503 T204D): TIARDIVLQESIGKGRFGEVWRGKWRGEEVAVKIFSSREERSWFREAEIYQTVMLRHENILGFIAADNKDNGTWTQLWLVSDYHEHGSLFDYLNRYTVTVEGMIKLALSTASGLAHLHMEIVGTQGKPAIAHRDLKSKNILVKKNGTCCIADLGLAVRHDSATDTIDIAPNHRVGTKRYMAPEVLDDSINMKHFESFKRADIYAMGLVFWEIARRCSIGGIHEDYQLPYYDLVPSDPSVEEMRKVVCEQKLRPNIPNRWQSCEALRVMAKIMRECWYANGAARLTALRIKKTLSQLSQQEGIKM

B1: Follistatin: an antagonist of activin signalling (protein, UniProt P19883 30-344, looked up)
Follistatin: GNCWLRQAKNGRCQVLYKTELSKEECCSTGRLSTSWTEEDVNDNTLFKWMIFNGGAPNCIPCKETCENVDCGPGKKCRMNKKNKPRCVCAPDCSNITWKGPVCGLDGKTYRNECALLKARCKEQPELEVQYQGRCKKTCRDVFCPGSSTCVVDQTNNAYCVTCNRICPEPASSEQYLCGNDGVTYSSACHLRKATCLLGRSIGLAYEGKCIKAKSCEDIQCTGGKKCLWDFKVGRGRCSLCDELCPDSKSDEPVCASDNATYASECAMKEAACSSGVLLEVKHSGSCNSISEDTEEEEEDEDQDYSFPISSILEW

test system: bleomycin-treated rats; test: not given; conditions: cited from earlier work

Row | Molecule | lung fibrosis | number of macrophages and neutrophils in bronchoalveolar lavage
1 | B1 | attenuated lung fibrosis | significantly reduced

biological target: T1, human ALK5 (ALK5 T204D kinase domain); test: ALK5 kinase activity, [33P] phosphate incorporation into casein; type: biochemical; conditions: casein substrate, 1 μM unlabelled ATP
Description: The kinase activity of ALK5 is assessed by measuring radiolabelled phosphate [33P] incorporation in to the generic substrate, casein. The kinase domain of human ALK5 (amino acids 200-503) is fused to an N-terminal histidine tag. The kinase activity of ALK5 is rendered constitutive via point mutation at amino acid 204 (threonine to aspartate modification, ALK5 T204D) and the kinase construct is engineered to be expressed from a baculovirus expression construct in insect cells. The purified, recombinantly-expressed histidine-tagged ALK5 T204D protein is dissolved at 5.4 mg/ml in 50 mM Tris-HCl pH 8.0, 150 mM NaCl, 5 mM DTT. ALK5 T204D is dissolved to 2.5 μg/ml in assay buffer (Assay buffer: 20 mM Tris-HCl pH 7.4, 10 mM MgCl2, 2 mM MnCl2) on the day of use.
Test compounds and reference compounds are dissolved in assay buffer without DTT containing 5% (v/v) DMSO. Stock solutions of test and reference compounds are diluted in assay buffer with DTT (1.25 mM) containing 4.5% (v/v) DMSO. 10 μl of test or reference compound are added to the appropriate wells of 96 well U-bottomed plate. Total enzyme activity is determined by measuring ALK5 T204D activity in the absence of ALK5 kinase inhibitor reference compounds. Non-specific binding (NSB) is determined by measuring the activity of ALK5 T204D in the presence of ALK5 kinase inhibitor reference compounds. 10 μl of dephosphorylated casein stock solution (dephosphorylated casein is dissolved in ddH2O at 20 mg/ml) is added per well (200 μg/well final assay concentration). 20 μl of ALK5 T204D (2.5 μg/ml solution) is added per well (50 ng/well final assay concentration). The plates are left to incubate at room temperature for 10 minutes.
10 μl of ATP mix is added to the well to initiate the reaction (0.66 nM [^33P]ATP/1 μM unlabelled ATP/well final assay concentration). The ATP mix is prepared as follows, unlabelled ATP (3 mM) is dissolved in ddH2O and pH adjusted to 7.4. The stock concentration of [^33P]ATP is 10 μCi/μl. The appropriate volume of [^33P]ATP is added to unlabelled ATP solution such that the final assay concentration per well is 0.1 μCi. Following addition of the ATP mix, the plates are incubated at room temperature for 50 minutes. The kinase reaction is terminated by the addition of 50 μL Stop Buffer (20 mM Tris-HCl pH 7.4, 10 mM EDTA).
75 μl/well from the reaction plate is transferred to a Multiscreen-IP plate (MultiScreen-IP plates are prepared by added 50 μL of 70% (v/v) ethanol per well and incubated for 5 minutes at room temperature. The ethanol is removed by aspiration via a MultiScreen HTS Vacuum Manifold unit (Millipore, Cat no: MSVMHT500). The plates are washed twice by adding 200 μl/well ddH2O). The MultiScreen-IP plate is incubated at room temperature for 30 minutes to allowing binding of casein to the plate. The MultiScreen-IP plates are washed three times by adding 200 μl/well 100 mM phosphoric acid solution and the gasket is carefully removed from the back of the MultiScreen-IP plate and the plate dried in the oven for 30 minutes. The MultiScreen-IP plate is backsealed, 50 μL of Microscint™20 is added, then the plates are topsealed and radiolabelled casein detected and quantified on a TopCount™ plate-reader using the ^33P scintillation protocol.

Row | Molecule | IC50 [µM]
2 | c1ccc(-c2nc(NCc3cccc4[nH]ccc34)cc(-c3cccnc3)n2)nc1 [Example 1.1, (1H-Indol-4-ylmethyl)-(6-pyridin-3-yl-2-pyridin-2-yl-pyrimidin-4-yl)-amine] | 0.1
3 | c1ccc(-c2nc(NCCc3cccc4[nH]ccc34)cc(-c3cccnc3)n2)nc1 [Example 1.2, [2-(1H-Indol-4-yl)-ethyl]-(6-pyridin-3-yl-2-pyridin-2-yl-pyrimidin-4-yl)-amine] | 0.03
4 | Cc1cccc(-c2nc(NCCc3c[nH]c4ccccc34)cc(-c3cccnc3)n2)n1 [Example 1.3, [2-(1H-Indol-3-yl)-ethyl]-[2-(6-methyl-pyridin-2-yl)-6-pyridin-3-yl-pyrimidin-4-yl]-amine] | 0.06
5 | Cc1cccc(-c2nc(NCCc3cccc4[nH]ccc34)cc(-c3cccnc3)n2)n1 [Example 1.6, [2-(1H-Indol-4-yl)-ethyl]-[2-(6-methyl-pyridin-2-yl)-6-pyridin-3-yl-pyrimidin-4-yl]-amine] | 0.02
6 | Fc1ccc2[nH]cc(CCNc3cc(-c4cccnc4)nc(-c4ccccn4)n3)c2c1 [Example 1.15, [2-(5-Fluoro-1H-indol-3-yl)-ethyl]-(6-pyridin-3-yl-2-pyridin-2-yl-pyrimidin-4-yl)-amine] | 0.79
7 | c1ccc(-c2nc(NCc3c[nH]c4ccccc34)cc(-c3cccnc3)n2)nc1 [Example 1.23, (1H-Indol-3-ylmethyl)-(6-pyridin-3-yl-2-pyridin-2-yl-pyrimidin-4-yl)-amine] | 0.57
8 | Oc1ccc2[nH]cc(CCNc3cc(-c4cccnc4)nc(-c4ccccn4)n3)c2c1 [Example 1.29, 3-[2-(6-Pyridin-3-yl-2-pyridin-2-yl-pyrimidin-4-ylamino)-ethyl]-1H-indol-5-ol] | 0.37
9 | Fc1cccc2c(CCNc3cc(-c4cccnc4)nc(-c4ccccn4)n3)c[nH]c12 [Example 1.42, [2-(7-Fluoro-1H-indol-3-yl)-ethyl]-(6-pyridin-3-yl-2-pyridin-2-yl-pyrimidin-4-yl)-amine] | 0.31
10 | Cc1cccc(-c2nc(NCCc3cccc(O)c3)cc(-c3cccnc3)n2)n1 [Example 1.48, 3-{2-[2-(6-Methyl-pyridin-2-yl)-6-pyridin-3-yl-pyrimidin-4-ylamino]-ethyl}-phenol] | 0.08
11 | Oc1ccccc1CCNc1cc(-c2cccnc2)nc(-c2ccccn2)n1 [Example 1.62, 2-[2-(6-Pyridin-3-yl-2-pyridin-2-yl-pyrimidin-4-ylamino)-ethyl]-phenol] | 0.15
12 | c1ccc(-c2nc(NCCc3coc4ccccc34)cc(-c3cccnc3)n2)nc1 [Example 1.77, (2-Benzofuran-3-yl-ethyl)-(6-pyridin-3-yl-2-pyridin-2-yl-pyrimidin-4-yl)-amine] | 0.18
13 | Cc1ccc2c(CCNc3cc(-c4cccnc4)nc(-c4cccc(C)n4)n3)c[nH]c2c1 [Example 1.82, [2-(6-Methyl-1H-indol-3-yl)-ethyl]-[2-(6-methyl-pyridin-2-yl)-6-pyridin-3-yl-pyrimidin-4-yl]-amine] | 0.1
14 | COc1cncc(-c2cc(NCc3cccc4[nH]ccc34)nc(-c3cccc(C)n3)n2)c1 [Example 2.2, (1H-Indol-4-ylmethyl)-[6-(5-methoxy-pyridin-3-yl)-2-(6-methyl-pyridin-2-yl)-pyrimidin-4-yl]-amine] | 0.02
15 | COc1cccc(-c2cncc(-c3cc(NCc4cccc(O)c4)nc(-c4ccccn4)n3)c2)c1 [Example 2.17, 3-({6-[5-(3-Methoxy-phenyl)-pyridin-3-yl]-2-pyridin-2-yl-pyrimidin-4-ylamino}-methyl)-phenol] | 0.08
16 | Cc1cncc(-c2cc(NCCc3c[nH]c4ccccc34)nc(-c3ccccn3)n2)c1 [Example 2.31, [2-(1H-Indol-3-yl)-ethyl]-[6-(5-methyl-pyridin-3-yl)-2-pyridin-2-yl-pyrimidin-4-yl]-amine] | 0.91
17 | CNc1cc(-c2cncc(-c3cccc(OC)c3)c2)nc(-c2cccc(C)n2)n1 [Example 2.69, [6-[5-(3-Methoxy-phenyl)-pyridin-3-yl]-2-(6-methyl-pyridin-2-yl)-pyrimidin-4-yl]-methyl-amine] | 0.42
18 | COc1cccc(-c2cncc(-c3cc(NCc4cccc(O)c4)nc(-c4cccc(C)n4)n3)c2)c1 [Example 2.70, 3-([6-[5-(3-Methoxy-phenyl)-pyridin-3-yl]-2-(6-methyl-pyridin-2-yl)-pyrimidin-4-ylamino]-methyl}-phenol] | 0.01
19 | Cc1cccc(-c2nc(NCc3cccc(O)c3)cc(-c3cncc(-c4ccc(F)cc4)c3)n2)n1 [Example 2.71, 3-{[6-[5-(4-Fluoro-phenyl)-pyridin-3-yl]-2-(6-methyl-pyridin-2-yl)-pyrimidin-4-ylamino]-methyl}-phenol] | 0.04

test system: dimethylnitrosamine induced liver fibrosis; test: not given; conditions: rat, during the 3 weeks treatment; cited from earlier work

Row | Molecule | side effects
20 | c1ccc(-c2cc(-c3cn[nH]c3-c3ccccn3)ccn2)cc1 [GW6604] | no obvious side effects

same assay, conditions: rat, given therapeutically, 3 weeks treatment; cited from earlier work

Row | Molecule | inhibition of extracellular matrix deposition [%] | prevention of death rate [%]
21 | c1ccc(-c2cc(-c3cn[nH]c3-c3ccccn3)ccn2)cc1 [GW6604] | 60 | 40
